Measurements as given in patent US20170119806A1, “[…] LACTONE DERIVATIVES AND METHODS OF MAKING AND USING THEREOF” (OHIO STATE INNOVATION FOUNDATION, priority 2014, published 2017).
“Also recorded” adds a separate entry of the source.

What was measured:
human primary NK cells = assay: IFN-γ production by NK cells (intracellular flow cytometry, ELISA); format: cell-based; details: 10 μM PL-C, 18 h
Procedure: (A) Chemical structure of PL-C (phyllanthusmin C, 4), (9) Healthy donor PBMCs (left panel) or enriched NK cells (right panel) were treated with DMSO vehicle control or 10 μM PL-C for 18 h in the presence of […] (10 ng/mL) or IL-15 (100 ng/mL). The cells were harvested and analyzed by intracellular flow cytometry to determine the frequency of IFN-γ^+ cells in CD56^+CD3^− NK cells (n=8 for PBMC and n=5 for enriched NK). (C) Highly purified (≧99.5%) human primary NK cells were treated with 10 μM PL-C for 18 h to determine the levels of IFN-γ secretion by ELISA. IFN-γ secretion from treatment with PL-C alone (left panel) or in combination with IL-12 (10 ng/mL, middle panel) or IL-15 (100 ng/mL, right panel) is shown. (D) Cells were treated as described in (C) and harvested at 12 h, IFNG mRNA expression was assessed by real-time RT-PCR, and the relative IFNG mRNA expression of each treatment was normalized to untreated vehicle control in the same donor. Data are shown as mean±SEM (n=6 in each treatment; error bars represent SEM). *p<0.05, **p<0.01, which denote statistical comparison between the two marked treatment groups (B-D). (E) Highly purified (≧99,5%) primary human NK cells were treated with 10 μM. PL-C in combination with various concentrations of IL-12 (10, 1, and 0.1 ng/mL) or IL-15 (100, 10, and 1 ng/mL) for 24 h to determine the levels of IFN-γ secretion. Representative data from one of three donors with the similar data are shown. *p<0.05, **p<0.01, which denote statistical comparison between the two marked treatment groups and are calculated from data of all tested donors. Error bars represent SD. […]
Isolation of PBMCs and NK cells. […] The purity of enriched NK cells was ≧80% assessed by flow cytometric analysis after staining with CD56-allophycocyanin and CD3-FITC Abs (BD Bio-sciences, San Jose, Calif.). […] The purity of magnetic bead-purified NK cells was ≧99.5%, as determined by the aforementioned flow cytometric analysis. […]

[1] = tested on: STAT3, STAT4, STAT5, T-BET; assay: Immunoblotting of STATs and T-BET in NK cells; format: cell-based, human; details: 5 or 10 μM PL-C, 4 h, with IL-12 or IL-15; listed as PL-C
Procedure: (A) Purified human primary NK cells were treated with 10 μM PL-C in the presence of IL-2 (10 ng/mL) or IL-15 (100 ng/mL) for 12 hours. DMSO-treated cells served as vehicle controls. Cell pellets were harvested to extract total RNA for real-time RT-PCR to determine mRINA expression levels of IL-12Rβ1, IL-12Rβ2, IL-15Rα and IL-15β. Data are shown as means of 3 donors, * and ** indicate p<0.05 and p<0.01, respectively, which denote a statistical comparison between the two marked treatment groups. Error bars represent S.D. (B, C) Purified primary NK cells (B) or NKL cells (C) were treated with 5 or 10 μM PL-C in the presence of IL-12 (10 ng/mL) or IL-15 (100 ng/mL) for 4 hours. DMSO-treated cells served as vehicle controls. Cell pellets were harvested for subsequent immunoblotting of T-BET, phosphorylated STAT3 (p-STAT3), p-STAT4, p-STAT5, STAT3, STAT4, and STAT5. Data represent 1 out of 3 donors with similar data (B) and 3 independent experiments with similar results (C). Numbers underneath each lane represent quantification of detected protein by densitometry, after normalizing to β-actin.
Immunoblotting. Immunoblotting was performed as described previously (Yu J et al. Immunity 2006, 24, 575-590; Yu J et al. Blood 2010, 115, 274-281). […]

With COc1cc2c(OC3OCC(O)C(O)C3O)c3c(c(-c4ccc5c(c4)OCO5)c2cc1OC)C(=O)OC3 (stereo not drawn) [Compound 4, Phyllanthusmin C] as the molecule, how does the “IFN-γ production/secretion by human NK cells” value (human primary NK cells; alone or with IL-12 (10 ng/mL) or IL-15 (100 ng/mL), listed as PL-C) read?
The value was “enhanced IFN-γ production; also recorded: can induce NK cell IFN-γ production; also recorded: induced NK cell secretion of IFN-γ even in the absence IL-12 or IL-15; also recorded: enhanced NK cell IFN-γ secretion in the presence of IL-12 or IL-15 stimulation; also recorded: enhanced by PL-C”.

What about the “IFN-γ production induced by Pam3CSK4 or FSL-1 in NK cells” value (human primary NK cells; ligands 1 μg/mL, IL-12 (10 ng/mL)) of the same molecule?
Its value is “enhanced IFN-γ production”.

What about the “total or phosphorylated STAT3, STAT4, STAT5 and T-BET in NK or NKL cells” value [1] of the same molecule?
The value was “No upregulation; also recorded: no significant change of T-BET”.
